Laboratory results: PubChem BioAssay (NCI)
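Five concentrations, 48 hours, 96-well plates. The concentration for 50% growth inhibition is given as GI50. TGI marks complete inhibition of growth.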

Experiments:
Assay in all cases: NCI tumour cell line growth inhibition, 48 h
IGROV1 ovarian = test system: IGROV1 ovarian
HCT-116 colon = test system: HCT-116 colon
NCI-H460 lung = test system: NCI-H460 lung
COLO 205 colon = test system: COLO 205 colon
OVCAR-4 ovarian = test system: OVCAR-4 ovarian
U251 CNS = test system: U251 CNS
DU-145 prostate = test system: DU-145 prostate
786-0 renal = test system: 786-0 renal
RPMI-8226 leukemia = test system: RPMI-8226 leukemia
MOLT-4 leukemia = test system: MOLT-4 leukemia
SK-MEL-2 melanoma = test system: SK-MEL-2 melanoma
UO-31 renal = test system: UO-31 renal
NCI-H226 lung = test system: NCI-H226 lung
SF-268 CNS = test system: SF-268 CNS
SNB-75 CNS = test system: SNB-75 CNS
NCI-H23 lung = test system: NCI-H23 lung
MDA-MB-468 breast = test system: MDA-MB-468 breast
LOX IMVI melanoma = test system: LOX IMVI melanoma
KM12 colon = test system: KM12 colon
TK-10 renal = test system: TK-10 renal
HCC-2998 colon = test system: HCC-2998 colon
SNB-19 CNS = test system: SNB-19 CNS
UACC-62 melanoma = test system: UACC-62 melanoma
A498 renal = test system: A498 renal
HL-60(TB) leukemia = test system: HL-60(TB) leukemia
SR leukemia = test system: SR leukemia
EKVX NSCLC = test system: EKVX NSCLC
SN12C renal = test system: SN12C renal
CAKI-1 renal = test system: CAKI-1 renal
SK-MEL-28 melanoma = test system: SK-MEL-28 melanoma
SF-539 CNS = test system: SF-539 CNS
HOP-92 NSCLC = test system: HOP-92 NSCLC
MDA-MB-435 = test system: MDA-MB-435
BT-549 breast = test system: BT-549 breast
OVCAR-5 ovarian = test system: OVCAR-5 ovarian
K-562 leukemia = test system: K-562 leukemia
PC-3 prostate = test system: PC-3 prostate
MCF7 breast = test system: MCF7 breast
SF-295 CNS = test system: SF-295 CNS
HT29 colon = test system: HT29 colon
ACHN renal = test system: ACHN renal
HS 578T breast = test system: HS 578T breast
CCRF-CEM leukemia = test system: CCRF-CEM leukemia
SK-MEL-5 melanoma = test system: SK-MEL-5 melanoma
RXF 393 renal = test system: RXF 393 renal
A549 NSCLC = test system: A549 NSCLC
MDA-MB-231 breast = test system: MDA-MB-231 breast
M14 melanoma = test system: M14 melanoma
T-47D breast = test system: T-47D breast
NCI-H522 lung = test system: NCI-H522 lung
HCT-15 colon = test system: HCT-15 colon
OVCAR-8 ovarian = test system: OVCAR-8 ovarian
MALME-3M melanoma = test system: MALME-3M melanoma
HOP-62 NSCLC = test system: HOP-62 NSCLC
OVCAR-3 ovarian = test system: OVCAR-3 ovarian
UACC-257 melanoma = test system: UACC-257 melanoma
SK-OV-3 ovarian = test system: SK-OV-3 ovarian
SW-620 colon = test system: SW-620 colon

O=c1cc(-c2ccccc2)oc2cc(OCCCCNCc3ccccc3)cc(O)c12 gave a GI50 (IGROV1 ovarian) of 11.4 µM, a TGI (IGROV1 ovarian) of 26.6 µM and a GI50 (HCT-116 colon) of 4.28 µM. For the same compound, the TGI (HCT-116 colon) was 17.2 µM, the GI50 (NCI-H460 lung) was 4.96 µM and the TGI (NCI-H460 lung) was 17.4 µM. The GI50 (COLO 205 colon) was 5.13 µM, the TGI (COLO 205 colon) was 18.4 µM and the GI50 (OVCAR-4 ovarian) was 8.92 µM. The TGI (OVCAR-4 ovarian) was 23.6 µM, the GI50 (U251 CNS) was 6.11 µM and the TGI (U251 CNS) was 19.1 µM. It also gave a GI50 (DU-145 prostate) of 12.2 µM, a TGI (DU-145 prostate) of 24.5 µM and a GI50 (786-0 renal) of 4.54 µM. For the same compound, the TGI (786-0 renal) was 18.6 µM, the GI50 (RPMI-8226 leukemia) was 2250 nM and the TGI (RPMI-8226 leukemia) was 6.98 µM. It also gave a GI50 (MOLT-4 leukemia) of 2120 nM, a TGI (MOLT-4 leukemia) of 9.43 µM and a GI50 (SK-MEL-2 melanoma) of 16.3 µM. The TGI (SK-MEL-2 melanoma) was 30.2 µM, the GI50 (UO-31 renal) was 6.11 µM and the TGI (UO-31 renal) was 21.1 µM. The GI50 (NCI-H226 lung) was 13.5 µM, the TGI (NCI-H226 lung) was 32 µM and the GI50 (SF-268 CNS) was 10.6 µM. It also gave a TGI (SF-268 CNS) of 27 µM, a GI50 (SNB-75 CNS) of 10.5 µM and a TGI (SNB-75 CNS) of 22.4 µM. It also gave a GI50 (NCI-H23 lung) of 13.8 µM, a TGI (NCI-H23 lung) of 27.4 µM and a GI50 (MDA-MB-468 breast) of 2550 nM. The TGI (MDA-MB-468 breast) was 11.1 µM, the GI50 (LOX IMVI melanoma) was 3.13 µM and the TGI (LOX IMVI melanoma) was 11.2 µM. It also gave a GI50 (KM12 colon) of 5.7 µM, a TGI (KM12 colon) of 18.9 µM and a GI50 (TK-10 renal) of 15.5 µM. The TGI (TK-10 renal) was 29.5 µM, the GI50 (HCC-2998 colon) was 2300 nM and the TGI (HCC-2998 colon) was 5.74 µM. The GI50 (SNB-19 CNS) was 13.3 µM, the TGI (SNB-19 CNS) was 27.9 µM and the GI50 (UACC-62 melanoma) was 2160 nM. For the same compound, the TGI (UACC-62 melanoma) was 4.79 µM, the GI50 (A498 renal) was 19.8 µM and the TGI (A498 renal) was 36.8 µM. For the same compound, the GI50 (HL-60(TB) leukemia) was 1120 nM, the TGI (HL-60(TB) leukemia) was 3.43 µM and the GI50 (SR leukemia) was 1790 nM. It also gave a TGI (SR leukemia) of 4.63 µM, a GI50 (EKVX NSCLC) of 12.7 µM and a TGI (EKVX NSCLC) of 25.9 µM. For the same compound, the GI50 (SN12C renal) was 12.7 µM, the TGI (SN12C renal) was 28 µM and the GI50 (CAKI-1 renal) was 10.2 µM. The TGI (CAKI-1 renal) was 22.3 µM, the GI50 (SK-MEL-28 melanoma) was 3.24 µM and the TGI (SK-MEL-28 melanoma) was 9.38 µM. The GI50 (SF-539 CNS) was 11.7 µM, the TGI (SF-539 CNS) was 25.3 µM and the GI50 (HOP-92 NSCLC) was 3.73 µM. For the same compound, the TGI (HOP-92 NSCLC) was 21.1 µM, the GI50 (MDA-MB-435) was 7.98 µM and the TGI (MDA-MB-435) was 20.5 µM. The GI50 (BT-549 breast) was 13.2 µM, the TGI (BT-549 breast) was 26.7 µM and the GI50 (OVCAR-5 ovarian) was 19 µM. For the same compound, the TGI (OVCAR-5 ovarian) was 35.7 µM, the GI50 (K-562 leukemia) was 1970 nM and the TGI (K-562 leukemia) was 7.35 µM. It also gave a GI50 (PC-3 prostate) of 5.01 µM, a TGI (PC-3 prostate) of 19.9 µM and a GI50 (MCF7 breast) of 3.43 µM. It also gave a TGI (MCF7 breast) of 14.9 µM, a GI50 (SF-295 CNS) of 11.7 µM and a TGI (SF-295 CNS) of 24.4 µM. For the same compound, the GI50 (HT29 colon) was 2950 nM, the TGI (HT29 colon) was 12 µM and the GI50 (ACHN renal) was 12.2 µM. It also gave a TGI (ACHN renal) of 26.9 µM, a GI50 (HS 578T breast) of 11 µM and a TGI (HS 578T breast) of 32 µM. The GI50 (CCRF-CEM leukemia) was 2890 nM, the TGI (CCRF-CEM leukemia) was 15.8 µM and the GI50 (SK-MEL-5 melanoma) was 12.2 µM. It also gave a TGI (SK-MEL-5 melanoma) of 24.7 µM, a GI50 (RXF 393 renal) of 1910 nM and a TGI (RXF 393 renal) of 10.1 µM. It also gave a GI50 (A549 NSCLC) of 7.94 µM, a TGI (A549 NSCLC) of 21.1 µM and a GI50 (MDA-MB-231 breast) of 7.02 µM. For the same compound, the TGI (MDA-MB-231 breast) was 21.3 µM, the GI50 (M14 melanoma) was 2020 nM and the TGI (M14 melanoma) was 4.48 µM. The GI50 (T-47D breast) was 13.7 µM, the TGI (T-47D breast) was 33.1 µM and the GI50 (NCI-H522 lung) was 13.1 µM. For the same compound, the TGI (NCI-H522 lung) was 29.3 µM, the GI50 (HCT-15 colon) was 3.48 µM and the TGI (HCT-15 colon) was 12.8 µM. It also gave a GI50 (OVCAR-8 ovarian) of 12.6 µM, a TGI (OVCAR-8 ovarian) of 28.7 µM and a GI50 (MALME-3M melanoma) of 2190 nM. For the same compound, the TGI (MALME-3M melanoma) was 7.29 µM, the GI50 (HOP-62 NSCLC) was 13.2 µM and the TGI (HOP-62 NSCLC) was 27.5 µM. The GI50 (OVCAR-3 ovarian) was 12 µM, the TGI (OVCAR-3 ovarian) was 25 µM and the GI50 (UACC-257 melanoma) was 2990 nM. For the same compound, the TGI (UACC-257 melanoma) was 9.75 µM, the GI50 (SK-OV-3 ovarian) was 14.6 µM and the TGI (SK-OV-3 ovarian) was 28 µM. The GI50 (SW-620 colon) was 10.2 µM and the TGI (SW-620 colon) was 23.4 µM.
